The target of experiment [1] is T1, Sucrase-isomaltase, intestinal (Rattus norvegicus, UniProt P23739). The experiment can be described thus: Inhibition of Wistar rat small intestine sucrase after 30 mins.
Experiment [2] has as its target Lactase/phlorizin hydrolase (Rattus norvegicus) (UniProt Q02401). The experiment can be described thus: Inhibition of Wistar rat small intestine lactase at 1000 uM after 30 mins.
The next experiment is filed under the species Rattus norvegicus. Kind of experiment: Inhibition of Wistar rat small intestine cellobiase at 1000 uM after 30 mins.
In experiment [3] the target is T1, Sucrase-isomaltase, intestinal. Kind of experiment: Inhibition of Wistar rat small intestine isomaltase after 30 mins.
The target in experiment [4] is Sucrase-isomaltase, intestinal (Rattus norvegicus) (UniProt P23739). The experiment can be described thus: Inhibition of Wistar rat small intestine isomaltase at 1000 uM after 30 mins.
The target of experiment [5] is Lysosomal alpha-glucosidase (Rattus norvegicus) (UniProt Q6P7A9). To be noted: Wistar, 1000 uM.
Description: Inhibition of Wistar rat small intestine maltase at 1000 uM after 30 mins

The structures appear in SMILES notation.

The text below walks through data of ChEMBL document CHEMBL1641457, “The synthesis and biological evaluation of 1-C-alkyl-L-arabinoiminofuranoses, a novel class of α-glucosidase inhibitors” (Bioorg Med Chem Lett, 2011).

Sequence of Lactase/phlorizin hydrolase (Rattus norvegicus) (Q02401 868-1928 limits assumed): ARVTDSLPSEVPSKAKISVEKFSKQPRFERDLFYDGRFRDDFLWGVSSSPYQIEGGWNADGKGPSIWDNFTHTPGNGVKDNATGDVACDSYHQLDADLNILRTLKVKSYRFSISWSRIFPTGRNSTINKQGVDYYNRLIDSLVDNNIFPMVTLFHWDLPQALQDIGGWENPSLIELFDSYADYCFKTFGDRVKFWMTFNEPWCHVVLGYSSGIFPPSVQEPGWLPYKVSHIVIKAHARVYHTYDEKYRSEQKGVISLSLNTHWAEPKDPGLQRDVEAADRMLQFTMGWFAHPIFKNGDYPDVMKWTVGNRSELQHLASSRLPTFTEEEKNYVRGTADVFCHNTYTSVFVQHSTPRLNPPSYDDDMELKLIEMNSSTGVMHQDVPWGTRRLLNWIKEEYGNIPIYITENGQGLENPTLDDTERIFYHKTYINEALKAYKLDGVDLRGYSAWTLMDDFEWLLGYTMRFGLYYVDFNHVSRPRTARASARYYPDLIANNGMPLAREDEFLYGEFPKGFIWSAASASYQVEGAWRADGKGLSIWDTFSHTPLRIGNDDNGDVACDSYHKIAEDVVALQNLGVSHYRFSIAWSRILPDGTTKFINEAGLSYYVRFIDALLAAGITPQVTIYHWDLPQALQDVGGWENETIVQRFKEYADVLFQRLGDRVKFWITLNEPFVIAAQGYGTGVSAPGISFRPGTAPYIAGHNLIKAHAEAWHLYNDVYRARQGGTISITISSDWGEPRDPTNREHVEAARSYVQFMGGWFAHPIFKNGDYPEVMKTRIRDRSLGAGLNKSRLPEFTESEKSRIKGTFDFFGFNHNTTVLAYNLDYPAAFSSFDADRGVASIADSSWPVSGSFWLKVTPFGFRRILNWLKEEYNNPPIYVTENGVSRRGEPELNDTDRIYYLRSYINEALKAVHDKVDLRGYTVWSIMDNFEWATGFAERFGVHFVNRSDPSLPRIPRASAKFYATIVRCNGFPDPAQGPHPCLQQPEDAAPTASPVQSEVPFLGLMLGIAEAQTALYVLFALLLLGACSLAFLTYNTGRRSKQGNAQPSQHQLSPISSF
Sequence of Sucrase-isomaltase, intestinal (Rattus norvegicus) (P23739 1-1013 limits assumed): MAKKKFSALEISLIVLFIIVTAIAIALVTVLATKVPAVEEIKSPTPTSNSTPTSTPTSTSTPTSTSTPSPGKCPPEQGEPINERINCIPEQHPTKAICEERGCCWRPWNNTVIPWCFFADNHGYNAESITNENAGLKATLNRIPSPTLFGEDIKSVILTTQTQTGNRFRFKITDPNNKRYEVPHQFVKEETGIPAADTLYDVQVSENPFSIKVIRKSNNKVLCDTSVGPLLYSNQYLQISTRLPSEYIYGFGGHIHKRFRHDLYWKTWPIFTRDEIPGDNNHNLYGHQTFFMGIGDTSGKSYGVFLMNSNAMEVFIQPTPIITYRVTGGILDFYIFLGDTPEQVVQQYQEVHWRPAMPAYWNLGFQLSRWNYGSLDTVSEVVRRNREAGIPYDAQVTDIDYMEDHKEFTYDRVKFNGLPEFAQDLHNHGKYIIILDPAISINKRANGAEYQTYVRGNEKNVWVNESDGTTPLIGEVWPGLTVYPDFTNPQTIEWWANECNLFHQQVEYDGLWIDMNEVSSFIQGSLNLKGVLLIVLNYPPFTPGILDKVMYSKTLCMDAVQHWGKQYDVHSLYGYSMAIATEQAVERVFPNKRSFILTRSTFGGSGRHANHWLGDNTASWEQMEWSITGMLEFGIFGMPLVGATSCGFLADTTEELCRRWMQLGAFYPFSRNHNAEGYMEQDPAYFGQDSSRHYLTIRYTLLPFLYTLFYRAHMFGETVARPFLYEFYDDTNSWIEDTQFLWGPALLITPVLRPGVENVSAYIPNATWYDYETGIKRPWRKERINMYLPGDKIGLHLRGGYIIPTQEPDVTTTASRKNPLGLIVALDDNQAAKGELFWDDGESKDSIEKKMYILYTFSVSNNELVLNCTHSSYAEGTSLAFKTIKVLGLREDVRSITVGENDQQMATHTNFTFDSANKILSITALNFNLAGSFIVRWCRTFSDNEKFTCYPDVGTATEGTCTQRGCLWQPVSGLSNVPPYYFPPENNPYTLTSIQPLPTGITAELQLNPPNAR
Sequence of Sucrase-isomaltase, intestinal (Rattus norvegicus) (P23739 1014-1841 limits assumed): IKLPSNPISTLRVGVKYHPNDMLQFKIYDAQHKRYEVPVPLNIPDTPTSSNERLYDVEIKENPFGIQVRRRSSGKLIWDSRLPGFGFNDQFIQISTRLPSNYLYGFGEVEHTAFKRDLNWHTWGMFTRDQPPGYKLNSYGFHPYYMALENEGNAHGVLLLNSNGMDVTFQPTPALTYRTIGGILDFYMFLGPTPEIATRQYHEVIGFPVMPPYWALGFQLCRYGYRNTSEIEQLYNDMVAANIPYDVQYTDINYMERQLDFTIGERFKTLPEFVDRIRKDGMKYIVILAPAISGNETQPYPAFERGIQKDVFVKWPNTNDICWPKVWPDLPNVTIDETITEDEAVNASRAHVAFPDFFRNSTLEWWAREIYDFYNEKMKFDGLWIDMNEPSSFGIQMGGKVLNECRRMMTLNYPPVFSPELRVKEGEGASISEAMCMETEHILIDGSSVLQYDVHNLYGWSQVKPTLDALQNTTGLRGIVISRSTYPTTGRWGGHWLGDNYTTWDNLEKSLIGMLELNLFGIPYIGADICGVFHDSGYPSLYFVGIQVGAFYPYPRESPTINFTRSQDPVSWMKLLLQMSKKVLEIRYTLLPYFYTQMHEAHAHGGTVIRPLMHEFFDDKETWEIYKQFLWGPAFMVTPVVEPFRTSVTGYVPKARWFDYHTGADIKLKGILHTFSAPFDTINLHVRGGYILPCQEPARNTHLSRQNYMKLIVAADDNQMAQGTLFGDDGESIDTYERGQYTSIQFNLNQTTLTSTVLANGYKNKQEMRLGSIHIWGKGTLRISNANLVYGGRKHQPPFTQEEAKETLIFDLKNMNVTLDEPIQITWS
T1 sequence (P23739 1-1013 limits assumed): as the sequence (P23739 1-1013 limits assumed) above
T1 sequence (P23739 1014-1841 limits assumed): as the sequence (P23739 1014-1841 limits assumed) above
Sequence of Lysosomal alpha-glucosidase (Rattus norvegicus) (Q6P7A9 whole entry): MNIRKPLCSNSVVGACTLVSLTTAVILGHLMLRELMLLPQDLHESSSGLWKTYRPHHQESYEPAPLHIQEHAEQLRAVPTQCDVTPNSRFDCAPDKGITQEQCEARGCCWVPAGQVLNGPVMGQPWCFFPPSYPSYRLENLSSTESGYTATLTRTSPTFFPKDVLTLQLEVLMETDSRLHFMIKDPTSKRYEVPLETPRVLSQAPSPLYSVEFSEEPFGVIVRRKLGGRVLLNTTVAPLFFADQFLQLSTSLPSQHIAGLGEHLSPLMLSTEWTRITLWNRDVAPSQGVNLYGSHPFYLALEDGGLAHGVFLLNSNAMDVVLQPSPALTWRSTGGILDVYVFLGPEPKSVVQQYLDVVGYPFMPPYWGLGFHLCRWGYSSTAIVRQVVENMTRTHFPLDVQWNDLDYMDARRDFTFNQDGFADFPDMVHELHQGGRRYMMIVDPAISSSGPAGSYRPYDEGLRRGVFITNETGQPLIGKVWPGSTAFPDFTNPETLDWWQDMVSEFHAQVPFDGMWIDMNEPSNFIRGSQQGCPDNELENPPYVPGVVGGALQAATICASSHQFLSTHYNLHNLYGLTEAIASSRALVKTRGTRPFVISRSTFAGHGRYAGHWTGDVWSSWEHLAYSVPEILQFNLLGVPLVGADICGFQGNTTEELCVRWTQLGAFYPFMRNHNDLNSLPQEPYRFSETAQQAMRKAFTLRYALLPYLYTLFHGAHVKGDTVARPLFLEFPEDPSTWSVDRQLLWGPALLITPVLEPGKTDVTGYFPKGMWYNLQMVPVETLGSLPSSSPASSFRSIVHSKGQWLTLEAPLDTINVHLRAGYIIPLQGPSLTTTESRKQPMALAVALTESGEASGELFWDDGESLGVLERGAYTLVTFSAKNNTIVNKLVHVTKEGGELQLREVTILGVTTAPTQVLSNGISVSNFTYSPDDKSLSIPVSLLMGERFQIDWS

In the case of `CCCCCCCC[C@@H]1N[C@@H](CO)[C@H](O)[C@H]1O`, the IC50 in experiment [1] was found to be 0.45 µM; in experiment [3], 75 µM. Moreover, the inhibition (in experiment [2]; in the experiment filed under Rattus norvegicus) was below 50% each time.
In turn, `CCCCCCCC[C@H]1N[C@@H](CO)[C@H](O)[C@H]1O` gave an IC50 in experiment [1] of 590 µM. Also, the inhibition (in experiment [2]; in the experiment listed under Rattus norvegicus; in experiment [4]) was below 50% in each case.
In the case of `CCCC[C@H]1[C@H](O)[C@@H](O)[C@H](CO)N1CCCC`, inhibition in experiment [1] was half-maximal at 8.8 µM (IC50). The inhibition (in experiment [2]; in the experiment listed under Rattus norvegicus; in experiment [4]) was below 50% each time.
In experiment [1], `CCCCCCCCCCC[C@@H]1N[C@@H](CO)[C@H](O)[C@H]1O` returned an IC50 of 13 µM. The inhibition (in experiment [2]; in the experiment listed under Rattus norvegicus; in experiment [4]) was below 50% each time.
With `CCC[C@@H]1N[C@@H](CO)[C@H](O)[C@H]1O`, the IC50 in experiment [1] is 0.26 µM; in experiment [3], 47 µM. For the same compound, the inhibition (in experiment [2]; in the experiment listed under Rattus norvegicus) was below 50% throughout.
Regarding `CCCC[C@H]1N[C@@H](CO)[C@H](O)[C@H]1O`, the inhibition (in experiment [5]; in experiment [2]; in the experiment listed under Rattus norvegicus; in experiment [4]) was below 50% each time. The same compound yielded a half-maximal inhibitory concentration (IC50) in experiment [1] of 392 µM.
For `CCCC[C@@H]1N[C@@H](CO)[C@H](O)[C@H]1O`, the 50% inhibitory concentration (IC50) in experiment [1] amounted to 0.032 µM; in experiment [3] it was 4.7 µM. For the same compound, the inhibition (in experiment [2]; in the experiment filed under Rattus norvegicus) was below 50% in each case.
Take `CC[C@@H]1N[C@@H](CO)[C@H](O)[C@H]1O`: the figures for the IC50 in experiment [1] and in experiment [3] were 0.68 µM and 11 µM, respectively. Besides, the inhibition (in experiment [2]; in the experiment listed under Rattus norvegicus) was below 50% in each case.
With `CCCCCCCCC[C@@H]1N[C@@H](CO)[C@H](O)[C@H]1O`, the IC50 amounted to 1.4 µM in experiment [1] and 171 µM in experiment [3]. The inhibition (in experiment [2]; in the experiment listed under Rattus norvegicus) was below 50% each time.
As to `C[C@H]1O[C@H](O[C@H]2[C@H](O)[C@@H](O)[C@@H](O[C@H]3[C@H](O)[C@@H](O)C(O)O[C@@H]3CO)O[C@@H]2CO)[C@H](O)[C@@H](O)[C@@H]1N[C@H]1C=C(CO)[C@@H](O)[C@H](O)[C@H]1O` (some centres not stated), the inhibition (in experiment [2]; in the experiment filed under Rattus norvegicus; in experiment [4]) was below 50% throughout.
Consider `CCCCCC[C@@H]1N[C@@H](CO)[C@H](O)[C@H]1O`, for which the values for the IC50 in experiment [1] and in experiment [3] were 0.11 µM and 11 µM, respectively. Besides, the inhibition (in experiment [2]; in the experiment filed under Rattus norvegicus) was below 50% in each case.
Turning to `OCC(CO)N[C@H]1C[C@](O)(CO)[C@@H](O)[C@H](O)[C@H]1O` [VOGLIBOSE], the IC50 is 0.37 µM in experiment [1] and 5.2 µM in experiment [3]. Also, the inhibition (in experiment [2]; in the experiment filed under Rattus norvegicus) was below 50% each time.
Turning to `OCCN1C[C@H](O)[C@@H](O)[C@H](O)[C@H]1CO` [MIGLITOL], the inhibition (in experiment [2]; in the experiment listed under Rattus norvegicus) was below 50% in each case.
Turning to `CCCCCCC[C@@H]1N[C@@H](CO)[C@H](O)[C@H]1O`, the concentration for half-maximal inhibition (IC50) in experiment [1] worked out at 0.24 µM; in experiment [3], 16 µM. The inhibition (in experiment [2]; in the experiment listed under Rattus norvegicus) was below 50% in each case.
As for `CCCCCCCCCC[C@@H]1N[C@@H](CO)[C@H](O)[C@H]1O`, the concentration for half-maximal inhibition (IC50) in experiment [1] was 1.7 µM; in experiment [3], 606 µM. Moreover, the inhibition (in experiment [2]; in the experiment listed under Rattus norvegicus) was below 50% throughout.
As to `CCCCC[C@@H]1N[C@@H](CO)[C@H](O)[C@H]1O`, the IC50 in experiment [1] was 0.19 µM; in experiment [3], 18 µM. Moreover, the inhibition (in experiment [2]; in the experiment filed under Rattus norvegicus) was below 50% each time.
